Source: patent US9562035B2, “Benzamide derivative useful as FASN inhibitors for the treatment of cancer” (Janssen Pharmaceutica NV, priority 2013, dated 2017)

Key:
[1] = tested on: LNCaP_Vancouver prostate cells; assay: In Vitro LNCaP Vancouver Prostate Cell Proliferation Assay in Lipid Reduced Medium; format: cell-based; settings: lipid reduced serum, 96 h, read-out: Vancouver Cells pIC50 (converted)
Method: LNCaP_Vancouver prostate cells were obtained from the Vancouver Prostate Cancer Centre. Cells were maintained in RPMI-1640, 10% Fetal Calf Serum (FCS, Hyclone), 2 mM glutamine and 50 μg/ml Gentamicin.
For the proliferation experiment 1500 LNCaP_Vancouver cells per well were seeded in a 384-well black with clear bottom plate (costar 3712BC) in 40 μl RPMI-1640, 10% Lipid reduced serum (LRS, Hyclone), 50 μg/ml Gentamicin and 2 mM Glutamine and incubated at 37° C., 5% CO2. The next day 10 μl of test compound/DMSO diluted in medium was added (3E-5M, 1E-5M, 3E-6M, 1E-6M, 3E-7M, 1E-7M, 3E-8M, 1E-8M final concentration). Compounds were tested in duplicate. After 96 h incubation at 37° C., 5% CO2 25 μl ATP-glow mix was added. The plate was incubated for 30 min at 37° C. and luminescence was measured with the Envision.
(§1) pIC50 values were calculated as follows. Raw data generated by the instruments were normalized to % Controlmin values, which were calculated as: % Controlmin=100*(x−mLC)/(mHC−mLC),
(§2) where mLC and mHC are the means of the low control wells and high control wells on the plate, after manual exclusion of outliers. The relation between the % Controlmin values and concentration was fitted to a 4-parameter logistic curve using a non-linear least squares regression method to determine the pIC50 value. Outlying data points were excluded manually to get a correct fit. The pIC50 corresponds to −log 10(IC50), if the IC50 is expressed in molar units (http://www.ncbi.nlm.nih.gov/books/NBK91994). The IC50 parameter was always determined by non-linear regression, but one or more of the other parameters may have been held fixed on a relevant input value, such as 0 for the bottom values.
(§3) For dose response curves with FASN inhibitors in LNCaP_Vancouver or PC-3M-Luc_C6 cells the curves bottom out around 30 to 40% of the control value. A standard fit PL2, forcing the lower bound to this level was used.
(§4) Representative compounds of the present invention were tested according to the procedure as described in Biological Example 4a and 4b above, with results as listed in Table BIO-4, below.

[2] = tested on: PC-3M-Luc-C6 prostate cells; assay: In Vitro PC-3M-Luc-C6 Prostate Cell Proliferation Assay in Lipid Reduced Medium; format: cell-based; settings: read-out: PC-3M-Luc-C6 Cells pIC50 (μM) (converted), lipid reduced serum, 96 h
Method: PC-3M-Luc-C6 prostate cells were obtained from Xenogen Corporation. Cells were maintained in MEM supplemented with 10% Fetal Calf Serum (FCS, Hyclone), 2 mM glutamine, 1 mM sodium pyruvate, 1% BME vitamins (available from for example, Sigma Aldrich), 0.1 mM non Essential Amino Acid and 50 μg/ml Gentamicin. The cells were passaged twice a week.
1000 PC-3M-Luc-C6 prostate cells (Xenogen) were seeded in a 384-well black with clear bottom plate (costar 3712BC) in 40 μl MEM, 10% LRS (Hyclo ne), 50 μg/ml Gentamicin, 2 mM Glutamine, 1 mM Sodium pyruvaat, 1% BME vitamins and 0.1 mM non Essential Amino Acid and incubated at 37° C., 5% CO2. The next day 10 μl test compound/DMSO diluted in medium was added (3E-5M, 1E-5M, 3E-6M, 1E-6M, 3E-7M, 1E-7M, 3E-8M, 1E-8M final concentration). Compounds were tested in duplicate. After 96 h incubation at 37° C., 5% CO2 25 μl ATP-glow mix was added. The plate was incubated for 30 min at 37° C. and luminescence was measured with the Envision.
as §1, §2, §3, §4

IC50 [1] [nM] | IC50 [2] [µM] | SMILES
1950 | 0.776 | CC(C)N(C)c1ccc(C(=O)N2CCC(c3ccc(-c4cnn(C)c4)cc3)CC2)cc1NC(=O)c1ccc(Cl)nc1 [Compound 274, 6-chloro-N-(2-(isopropyl(methyl)amino)-5-(4-(4-(1-methyl-1H-pyrazol-4-yl)phenyl)piperidine-1-carbonyl)phenyl)nicotinamide]
692 | 0.12 | CN(C)c1ccc(C(=O)N2CCC(c3ccc(-c4cnn(C)c4)cc3)CC2)cc1NC(=O)c1ccc(Cl)nc1 [Compound 275, 6-chloro-N-(2-(dimethylamino)-5-(4-(4-(1-methyl-1H-pyrazol-4-yl)phenyl)piperidine-1-carbonyl)phenyl)nicotinamide]
1380 | 0.49 | CC(C)Nc1ccc(C(=O)Nc2cc(C(=O)N3CCC(c4ccc(-c5cnn(C)c5)cc4)CC3)ccc2N(C)C(C)C)cn1 [Compound 276, N-(2-(isopropyl(methyl)amino)-5-(4-(4-(1-methyl-1H-pyrazol-4-yl)phenyl)piperidine-1-carbonyl)phenyl)-6-(isopropylamino)nicotinamide]
6170 | 2.14 | COCCN(C)c1ccc(C(=O)N2CCC(c3ccc(-c4cnn(C)c4)cc3)CC2)cc1NC(=O)C1CC1 [Compound 278, N-(2-((2-methoxyethyl)(methyl)amino)-5-(4-(4-(1-methyl-1H-pyrazol-4-yl)phenyl)piperidine-1-carbonyl)phenyl)cyclopropanecarboxamide]
372 | 0.0724 | CC(C)Nc1ccc(C(=O)Nc2cc(C(=O)N3CCC(c4ccc(-c5cnn(C)c5)cc4)CC3)ccc2N(C)C)cn1 [Compound 280, N-(2-(dimethylamino)-5-(4-(4-(1-methyl-1H-pyrazol-4-yl)phenyl)piperidine-1-carbonyl)phenyl)-6-(isopropylamino)nicotinamide]
~1350 | ~0.776 | COCCN(C)c1ccc(C(=O)N2CCC(c3ccc(-c4cnn(C)c4)cc3)CC2)cc1NC(=O)c1ccc(NC(C)C)nc1 [Compound 281, 6-(isopropylamino)-N-(2((2-methoxyethyl)(methyl)amino)-5-(4-(4-(1-methyl-1H-pyrazol-4-yl)phenyl)piperidine-1-carbonyl)phenyl)nicotinamide]
1020 | 0.17 | COCCNc1ccc(C(=O)N2CCC(c3ccc(-c4cnn(C)c4)cc3)CC2)cc1NC(=O)c1ccc(NC(C)C)nc1 [Compound 282, 6-(isopropylamino)-N-(2-((2-methoxyethyl)amino)-5-(4-(4-(1-methyl-1H-Pyrazol-4-yl)phenyl)piperidine-1-carbonyl)phenyl)nicotinamide]
1050 | 0.245 | CC(C)Nc1ccc(C(=O)Nc2cc(C(=O)N3CCC(c4ccc(-c5cnn(C)c5)cc4)CC3)ccc2NC2CC2)cn1 [Compound 283, N-(2-(cyclopropylamino)-5-(4-(4-(1-methyl-1H-pyrazol-4-yl)phenyl)piperidine-1-carbonyl)phenyl)-6-(isopropylamino)nicotinamide]
1020 | 0.195 | CC(C)Nc1ccc(C(=O)Nc2cc(C(=O)N3CCC(c4ccc(-c5cnn(C)c5)cc4)CC3)ccc2NC(C)C)cn1 [Compound 284, 6-(isopropylamino)-N-(2-(isopropylamino)-5-(4-(4-(1-methyl-1H-pyrazol-4-yl)phenyl)piperidine-1-carbonyl)phenyl)nicotinamide]
~537 | 0.126 | CC(C)Nc1ccc(C(=O)Nc2cc(C(=O)N3CCC(c4ccc(-c5cnn(C)c5)cc4)CC3)ccc2N)cn1 [Compound 285, N-(2-amino-5-(4-(4-(1-methyl-1H-pyrazol-4-yl)phenyl)piperidine-1-carbonyl)phenyl)-6-(isopropylamino)nicotinamide]
4070 | 1.82 | COCCNc1ccc(C(=O)N2CCC(c3ccc(-c4cnn(C)c4)cc3)CC2)cc1NC(=O)C1CC1 [Compound 286, N-(2-((2-methoxyethyl)amino)-5-(4-(4-(1-methyl-1H-pyrazol-4-yl)phenyl)piperidine-1-carbonyl)phenyl)cyclopropanecarboxamide]
977 | 0.186 | CC(C)Nc1ccc(C(=O)Nc2cc(C(=O)N3CCC(c4ccc(-c5cnn(C)c5)cc4)CC3)ccc2N(C)C2CC2)cn1 [Compound 287, N-(2-(cyclopropyl(methyl)amino)-5-(4-(4-(1-methyl-1H-pyrazol-4-yl)phenyl)piperidine-1-carbonyl)phenyl)-6-(isopropylamino)nicotinamide]
~9770 | 3.09 | CN(c1ccc(C(=O)N2CCC(c3ccc(-c4cnn(C)c4)cc3)CC2)cc1NC(=O)C1CC1)C1CC1 [Compound 288, N-(2-(cyclopropyl(methyl)amino)-5-(4-(4-(1-methyl-1H-pyrazol-4-yl)phenyl)piperidine-1-carbonyl)phenyl)cyclopropanecarboxamide]
29.5 | ~0.00813 | Cc1ccc(C(=O)N2CC(c3ccc(-c4cnn(C)c4)cc3)C2)cc1NC(=O)c1ccc(N2CCOCC2)nc1 [Compound #66, N-(2-methyl-5-(3-(4-(1-methyl-1H-pyrazol-4-yl)phenyl)azetidine-1-carbonyl)phenyl)-6-morpholinonicotinamide]
~34.7 | ~0.00871 | Cc1ccc(C(=O)N2CC(c3ccc(-c4cnn(C)c4)cc3)C2)cc1NC(=O)c1ccc(N(C)C(C)C)nc1 [Compound #78, 6-(isopropyl(methyl)amino)-N-(2-methyl-5-(3-(4-(1-methyl-1H-pyrazol-4-yl)phenyl)azetidine-1-carbonyl)phenyl)nicotinamide]
263 | 0.0355 | CNc1ccc(C(=O)N2CCC(c3ccc(-c4cnn(C)c4)cc3)CC2)cc1NC(=O)c1ccc(NC(C)C)nc1 [Compound #279, 6-(isopropylamino)-N-(5-(4-(4-(1-methyl-1H-pyrazol-4-yl)phenyl)piperidine-1-carbonyl)-2-(methylamino)phenyl)nicotinamide]
